Bounds are passed on as bounds.

Assay [1] has as its target T1, hFASN enzyme (full length) (Homo sapiens, UniProt P49327).
T1 construct: 10 μL hFASN enzyme (full length, 300 ng, purified in house); made in house
The assay is described as follows: Fatty Acid Synthase (FASN) inhibition scintillation proximity assay. Type of assay: biochemical. Conditions: for inhibition at 10 µM: read-out: Human FASN % inhibition @ 10 μM, 10 μM test compound; for IC50: read-out: Human FASN pIC50 (converted). A digest of the protocol:
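Full-length in-house purified enzyme (300 ng) was tested in 100 mM KH2PO4 pH 7.5, 1 mM DTT with ³H-acetyl-CoA and malonyl-CoA as substrates; compounds ranged 0.01–30 μM. Reactions were stopped with streptavidin imaging beads, read by LEADseeker at 610 nm, and fitted to a 4-parameter logistic curve.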
For orientation: SPA uses beads or plates that emit light when radiolabelled molecules are held near them.

Assay [2] has as its system A2780 ovarian cells. Put plainly: A2780 ovarian cell proliferation assay in lipid reduced medium, with palmitate (MTT). Type of assay: cell-based. Conditions: Homo sapiens, A2780, 96 h; read-out: pIC50 A2780 Ovarian Cell, With Palmitate (converted). A digest of the protocol: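 Seeded cells were switched next day to lipid-reduced serum, exposed to compound and 25 μM palmitate complexed with fatty-acid-free BSA, and incubated 96 h. Proliferation was then determined by MTT absorbance at 544 nm, with a best-fit curve of signal against concentration.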

Assay [3] deals with A2780 ovarian cells. The assay is described as follows: A2780 ovarian cell proliferation assay in lipid reduced medium, without palmitate (MTT). In kind it is cell-based. The following applies: Homo sapiens, A2780, 96 h; read-out: pIC50 A2780 Ovarian Cell, Without Palmitate (converted).
In assay [4] the test system is LNCaP-Vancouver prostate cells. Put plainly: In vitro LNCaP Vancouver prostate cell proliferation assay in lipid reduced medium. Type of assay: cell-based. Conditions: read-out: pIC50 LNCaP_Vancouver prostate cell (converted).
Assay [5] has as its system PC-3M-Luc-C6 prostate cells. Put plainly: In vitro PC-3M-Luc-C6 prostate cell proliferation assay in lipid reduced medium. In kind it is cell-based. Conditions: 96 h, read-out: pIC50 PC-3M-Luc-C6 prostate cell (converted).
For assay [6], the target named is Fatty Acid Synthase Keto-reductase Domain (FASN KR) (Homo sapiens, UniProt P49327). Put plainly: Fatty Acid Synthase keto-reductase domain (FASN KR) inhibition, NADPH oxidation at 340 nm.
Fatty Acid Synthase Keto-reductase Domain (FASN KR), sequence (P49327 whole entry, the tested form may be a part): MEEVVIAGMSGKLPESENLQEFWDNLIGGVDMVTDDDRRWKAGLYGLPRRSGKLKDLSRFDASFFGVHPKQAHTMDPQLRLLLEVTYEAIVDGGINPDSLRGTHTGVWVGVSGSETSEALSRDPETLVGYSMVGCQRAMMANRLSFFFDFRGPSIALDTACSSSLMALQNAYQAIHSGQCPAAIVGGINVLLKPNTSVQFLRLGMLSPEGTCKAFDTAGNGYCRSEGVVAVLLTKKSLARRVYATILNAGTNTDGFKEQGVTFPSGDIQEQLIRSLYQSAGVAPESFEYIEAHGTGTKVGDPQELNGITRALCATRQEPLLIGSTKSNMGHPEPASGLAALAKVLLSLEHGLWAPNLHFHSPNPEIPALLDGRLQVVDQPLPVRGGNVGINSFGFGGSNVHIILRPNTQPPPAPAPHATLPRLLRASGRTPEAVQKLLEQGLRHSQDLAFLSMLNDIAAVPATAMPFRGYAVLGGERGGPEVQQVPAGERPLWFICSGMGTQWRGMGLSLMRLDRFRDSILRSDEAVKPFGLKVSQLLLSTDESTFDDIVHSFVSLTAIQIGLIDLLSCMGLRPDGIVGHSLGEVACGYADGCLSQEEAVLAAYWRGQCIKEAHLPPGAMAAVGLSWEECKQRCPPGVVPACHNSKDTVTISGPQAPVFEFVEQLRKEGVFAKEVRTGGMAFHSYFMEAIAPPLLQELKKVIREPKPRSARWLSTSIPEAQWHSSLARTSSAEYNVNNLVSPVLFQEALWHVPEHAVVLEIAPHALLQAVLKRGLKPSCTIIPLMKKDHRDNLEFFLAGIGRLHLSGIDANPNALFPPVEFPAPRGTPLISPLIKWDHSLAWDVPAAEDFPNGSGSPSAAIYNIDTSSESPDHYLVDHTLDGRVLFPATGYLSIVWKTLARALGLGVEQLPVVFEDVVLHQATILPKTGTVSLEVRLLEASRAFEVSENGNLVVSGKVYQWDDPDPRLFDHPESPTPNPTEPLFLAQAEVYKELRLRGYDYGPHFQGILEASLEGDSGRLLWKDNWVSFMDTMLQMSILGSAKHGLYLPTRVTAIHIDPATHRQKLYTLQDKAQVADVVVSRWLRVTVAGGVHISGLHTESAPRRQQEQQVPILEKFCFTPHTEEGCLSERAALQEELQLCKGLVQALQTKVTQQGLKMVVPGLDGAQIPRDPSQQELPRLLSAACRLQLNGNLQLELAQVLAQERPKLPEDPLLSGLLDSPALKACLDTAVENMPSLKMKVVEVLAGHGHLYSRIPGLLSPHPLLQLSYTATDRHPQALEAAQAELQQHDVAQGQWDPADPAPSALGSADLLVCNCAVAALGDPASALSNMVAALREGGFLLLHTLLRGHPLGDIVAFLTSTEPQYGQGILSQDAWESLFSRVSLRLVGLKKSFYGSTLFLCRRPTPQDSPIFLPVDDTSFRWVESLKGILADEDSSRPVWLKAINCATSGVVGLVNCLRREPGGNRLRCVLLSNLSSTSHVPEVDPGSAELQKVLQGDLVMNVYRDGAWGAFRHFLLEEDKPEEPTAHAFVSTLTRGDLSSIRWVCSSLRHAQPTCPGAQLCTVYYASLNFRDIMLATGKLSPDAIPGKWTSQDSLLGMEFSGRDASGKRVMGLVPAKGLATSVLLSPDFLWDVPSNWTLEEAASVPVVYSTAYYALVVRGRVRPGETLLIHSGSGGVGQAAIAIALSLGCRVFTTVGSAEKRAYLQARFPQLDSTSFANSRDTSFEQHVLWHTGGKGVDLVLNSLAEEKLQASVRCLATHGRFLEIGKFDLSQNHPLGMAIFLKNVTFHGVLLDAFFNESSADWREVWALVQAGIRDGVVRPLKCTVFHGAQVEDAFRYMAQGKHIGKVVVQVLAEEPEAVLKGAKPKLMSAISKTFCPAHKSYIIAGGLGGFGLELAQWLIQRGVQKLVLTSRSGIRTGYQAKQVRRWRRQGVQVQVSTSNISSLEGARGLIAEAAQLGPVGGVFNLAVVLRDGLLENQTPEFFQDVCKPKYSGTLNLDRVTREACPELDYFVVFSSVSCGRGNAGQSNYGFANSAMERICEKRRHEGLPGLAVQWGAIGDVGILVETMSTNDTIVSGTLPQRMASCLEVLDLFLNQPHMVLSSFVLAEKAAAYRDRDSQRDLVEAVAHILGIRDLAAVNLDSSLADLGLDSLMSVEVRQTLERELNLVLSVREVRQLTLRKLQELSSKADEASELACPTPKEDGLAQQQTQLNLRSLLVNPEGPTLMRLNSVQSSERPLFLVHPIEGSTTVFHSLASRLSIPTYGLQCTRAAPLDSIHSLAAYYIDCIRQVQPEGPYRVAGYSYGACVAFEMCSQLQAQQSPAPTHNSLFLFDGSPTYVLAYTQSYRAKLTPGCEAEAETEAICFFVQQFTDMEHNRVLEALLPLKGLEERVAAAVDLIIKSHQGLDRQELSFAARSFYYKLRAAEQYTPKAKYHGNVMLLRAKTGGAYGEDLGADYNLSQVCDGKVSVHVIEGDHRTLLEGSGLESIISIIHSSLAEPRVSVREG
Experimental: After 20 minutes incubation at room temperature the plate was measured again (T2).
The decrease in absorbance was calculated as (Absorbance before incubation T1)−(Absorbance following incubation T2).
A plot of Controlmin versus test compound concentration was fitted to a 4-parameter logistic curve using a non-linear least squares regression method.

T1 sequence (P49327 whole entry): as the sequence (P49327 whole entry, the tested form may be a part) above

Usually inhibition stands for the drop in the measured response relative to a control, in per cent. As for `Cc1cc(-c2ccc3c(cnn3C)c2)ccc1C1=NC2(CC2)C(=O)N1CC1CN(C(=O)C2CCCO2)C1` (stereo in doubt) [compound 206, (S)-5-(2-methyl-4-(1-methyl-1H-indazol-5-yl)phenyl)-6-((1-(tetrahydro-furan-2-carbonyl)azetidin-3-yl)methyl)-4,6-diazaspiro[2.4]hept-4-en-7-one], in assay [1], the inhibition at 10 µM came out at 101%. Moreover, the IC50 in assay [1] was 37.2 nM; with A2780 ovarian cells [2], above 10000 nM; in the assay on A2780 ovarian cells [3], around 10.5 nM; in assay [4], 100 nM; in assay [5] it was 19.1 nM; in assay [6] it was 75.9 nM.

Take `O=C(C1CC1)N1CC(CN2C(=O)C3(CC3)N=C2c2ccc(-c3ccc4occc4c3)cc2)C1` [compound 49, 5-[4-(1-Benzofuran-5-yl)phenyl]-6-{[1-(cyclopropylcarbonyl)azetidin-3-yl]methyl}-4,6-diazaspiro[2.4]hept-4-en-7-one]: the inhibition at 10 µM in assay [1] is 101%. In addition, the IC50 in assay [1] is 60.3 nM; in the assay on A2780 ovarian cells [2], above 10000 nM; with A2780 ovarian cells [3], 331 nM; in assay [4] it was 912 nM; in assay [5], 219 nM; in assay [6], 155 nM.

As for `Cn1cc(-c2ccc(-c3ccc(C4=NC5(CC5)C(=O)N4CC4CN(C(=O)C5CC5)C4)cc3)cc2)cn1` [compound 59, 6-{[1-(Cyclopropylcarbonyl)azetidin-3-yl]methyl}-5-[4′-(1-methyl-1H-pyrazol-4-yl)biphenyl-4-yl]-4,6-diazaspiro[2.4]hept-4-en-7-one], the inhibition at 10 µM in assay [1] is 98.7%. For the same molecule, the IC50 was 41.7 nM in assay [1]; above 10000 nM in the assay with A2780 ovarian cells [2]; 95.5 nM in the assay on A2780 ovarian cells [3]; 263 nM in assay [4]; 100 nM in assay [5]; 132 nM in assay [6].

On to `O=C([C@H]1CCCO1)N1CC[C@@H](CN2C(=O)C3(CCOC3)N=C2c2ccc(-c3ccc4occc4c3)cc2)C1` (stereo partly drawn) [compound 688, 2-[4-(1-Benzofuran-5-yl)phenyl]-3-({(3R)-1-[(2R)-tetrahydro-furan-2-ylcarbonyl]pyrrolidin-3-yl}methyl)-7-oxa-1,3-diazaspiro[4.4]non-1-en-4-one], for which the inhibition at 10 µM in assay [1] turned out to be 99%. In addition, the IC50 in assay [1] is 214 nM; in assay [4], 2950 nM; in assay [5], 832 nM; in assay [6] it was 525 nM.

Turning to `Cn1ncc2cc(-c3ccc(C4=NC5(CCOC5)C(=O)N4C[C@@H]4CCN(C(=O)[C@H]5CCCO5)C4)cc3)ccc21` (stereo partly drawn) [compound 692, 2-[4-(1-Methyl-1H-indazol-5-yl)phenyl]-3-({(3R)-1-[(2R)-tetrahydro-furan-2-ylcarbonyl]pyrrolidin-3-yl}metrhyl)-7-oxa-1,3-diazaspiro[4.4]non-1-en-4-one], the inhibition at 10 µM in assay [1] was found to be 99%. The IC50 is 794 nM in assay [1], 4570 nM in assay [4], 1580 nM in assay [5] and 3240 nM in assay [6].

Regarding `CC(O)C(=O)N1CC(CN2C(=O)C3(CCOCC3)N=C2c2ccc(-c3ccc4cccnc4c3)cc2)C1` (stereo not drawn) [compound 699, 3-{[1-(2-Hydroxypropanoyl)azetidin-3-yl]methyl}-2-(4-quinolin-7-ylphenyl)-8-oxa-1,3-diazaspiro[4.5]dec-1-en-4-one], in assay [1], the inhibition at 10 µM came to 89%. The IC50 is around 724 nM in assay [1], above 10000 nM in assay [4], 5130 nM in assay [5] and 5370 nM in assay [6].

As to `O=C([C@H]1CCCO1)N1CC(CN2C(=O)C3(CCOCC3)N=C2c2ccc(-c3ccc4occc4c3)cc2)C1` [compound 704, 2-[4-(1-Benzofuran-5-yl)phenyl]-3-({1-[(2R)-tetrahydro-furan-2-ylcarbonyl]azetidin-3-yl}methyl)-8-oxa-1,3-diazaspiro[4.5]dec-1-en-4-one], in assay [1], the inhibition at 10 µM amounted to 86%. For the same molecule, the IC50 in assay [1] is 871 nM; in assay [4] it was 6920 nM; in assay [5], around 5750 nM; in assay [6], 6610 nM.

In the case of `CC(O)C(=O)N1CC(CN2C(=O)C3(CCOC3)N=C2c2ccc(-c3ccc4cccnc4c3)cc2)C1` (stereo not drawn) [compound 715, 3-{[1-(2-Hydroxypropanoyl)azetidin-3-yl]methyl}-2-(4-quinolin-7-ylphenyl)-7-oxa-1,3-diazaspiro[4.4]non-1-en-4-one], the inhibition at 10 µM in assay [1] stood at 86%. Further, the IC50 is 724 nM in assay [1], above 10000 nM in assay [4], 5010 nM in assay [5] and 5500 nM in assay [6].

As to `O=C([C@H]1CCCO1)N1CC(CN2C(=O)C3(CCOC3)N=C2c2ccc(-c3ccc4occc4c3)cc2)C1` (stereo partly drawn) [compound 720, 2-[4-(1-Benzofuran-5-yl)phenyl]-3-({1-[(2R)-tetrahydro-furan-2-ylcarbonyl]azetidin-3-yl}methyl)-7-oxa-1,3-diazaspiro[4.4]non-1-en-4-one], the inhibition at 10 µM in assay [1] turned out to be 87%. Also, the IC50 in assay [1] was 776 nM; in assay [4] it was 9120 nM; in assay [5] it was 4680 nM; in assay [6], 6460 nM.

As for `COC(=O)N1CC2(C1)N=C(c1ccc(-c3ccc(-c4cnn(C)c4)cc3)cc1)N(C[C@@H]1CCN(C(=O)[C@H]3CCCO3)C1)C2=O` [compound 727, Methyl 6-[4′-(1-methyl-1H-pyrazol-4-yl)biphenyl-4-yl]-8-oxo-7-({(3R)-1-[(2R)-tetrahydro-furan-2-ylcarbonyl]pyrrolidin-3-yl}methyl)-2,5,7-triazaspiro[3.4]ect-5-ene-2-carboxylate], the inhibition at 10 µM in assay [1] was 98%. Moreover, the IC50 in assay [1] is 204 nM; in assay [4], 2400 nM; in assay [5] it was 575 nM; in assay [6] it was 1100 nM.

For `COC(=O)N1CC2(C1)N=C(c1ccc(-c3ccc4cccnc4c3)cc1)N(C[C@@H]1CCN(C(=O)C3CC3)C1)C2=O` [compound 728, Methyl 7-{[(3R)-1-(cyclopropylcarbonyl)pyrrolidin-3-yl]methyl}-8-oxo-6-(4-quinolin-7-ylphenyl)-2,5,7-triazaspiro[3.4]ect-5-ene-2-carboxylate], the inhibition at 10 µM in assay [1] worked out at 100%. The IC50 in assay [1] is 64.6 nM; in assay [4], 525 nM; in assay [5], 151 nM; in assay [6], 316 nM.

`COC(=O)N1CC2(C1)N=C(c1ccc(-c3ccc4cccnc4c3)cc1)N(C[C@@H]1CCN(C(=O)[C@H]3CCCO3)C1)C2=O` [compound 730, Methyl 8-oxo-6-(4-quinolin-7-ylphenyl)-7-({(3R)-1-[(2R)-tetrahydro-furan-2-ylcarbonyl]pyrrolidin-3-yl}methyl)-2,5,7-triazaspiro[3.4]oct-5-ene-2-carboxylate]: the inhibition at 10 µM in assay [1] was found to be 102%. For the same molecule, the IC50 in assay [1] is 100 nM; in assay [4], around 407 nM; in assay [5], 97.7 nM; in assay [6] it was 355 nM.

With `COC(=O)N1CC2(C1)N=C(c1ccc(-c3ccc4occc4c3)cc1)N(C[C@@H]1CCN(C(=O)C3CC3)C1)C2=O` [compound 733, Methyl 6-[4-(1-benzofuran-5-yl)phenyl]-7-{[(3R)-1-(cycloprropylcarbonyl)pyrrolidin-3-yl]methyl}-8-oxo-2,5,7-triazaspiro[3.4]oct-5-ene-2-carboxylate], in assay [1], the inhibition at 10 µM was determined as 96%. Further, the IC50 in assay [1] was 200 nM; in assay [4], 3310 nM; in assay [5] it was 1290 nM; in assay [6], 537 nM.

For the molecule `COC(=O)N1CC2(C1)N=C(c1ccc(-c3ccc4occc4c3)cc1)N(C[C@@H]1CCN(C(=O)[C@H]3CCCO3)C1)C2=O` [compound 735, Methyl 6-[4-(1-benzofuran-5-yl)phenyl]-8-oxo-7-({(3R)-1-[(2T)-tetrahydro-furan-2-ylcarbonyl]pyrrolidin-3-yl}methyl)-2,5,7-triazaspiro[3.4]oct-5-ene-2-carboxylate], the inhibition at 10 µM in assay [1] was determined as 97%. In addition, the IC50 is 135 nM in assay [1], 3800 nM in assay [4], around 912 nM in assay [5] and 851 nM in assay [6].

As to `COC(=O)N1CC2(C1)N=C(c1ccc(-c3ccc4c(cnn4C)c3)cc1)N(C[C@@H]1CCN(C(=O)[C@H]3CCCO3)C1)C2=O` [compound 739, Methyl 6-[4-(1-methyl-1H-indazol-5-ylyl)phenyl]-8-oxo-7-({(3R)-1-[(2R)-tetrahydro-furan-2-ylcarbonyl]pyrrolidin-3-yl}methyl)-2,5,7-triazaspiro[3.4]oct-5-ene-2-carboxylate], the inhibition at 10 µM in assay [1] came out at 92%. The IC50 in assay [1] is 234 nM; in assay [4] it was 3800 nM; in assay [5], around 871 nM; in assay [6] it was 513 nM.
